Measured values published in PubChem BioAssay (NCI).
Where “and” joins values, the source holds several entries; their conditions need not be identical. Equal values may be shown once.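 Cells were grown in 96-well plates and exposed to each compound for 48 hours at five concentrations; endpoints were interpolated linearly between bracketing concentrations, or set to the highest concentration if not reached. The concentration for 50% growth inhibition is given as GI50. TGI denotes the concentration required for complete inhibition of growth.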

test system: TK-10 renal; assay: growth of human tumour cells (NCI), 48 h

SMILES | GI50 | TGI
C=C(CNCCO)[C@@H]1CC[C@]2(CO)CC[C@]3(C)[C@H](CC[C@@H]4[C@@]5(C)CCC(N)C(C)(C)[C@@H]5CC[C@]43C)[C@@H]12 (stereo partly drawn) | 2.54 µM | 7.07 µM
Nc1cc2nc3ccccc3sc-2cc1=O | 5.72 µM | 16.2 µM
CN(CC(=O)O)S(=O)(=O)c1ccc2ccccc2c1 |  | > 100 µM
CC1=C(C(=O)Nc2ccccc2C)C(c2ccco2)C(C(=O)Nc2ccccc2C)=C(C)N1C |  | > 100 µM
COc1cc2nc(-c3ccc(C(F)(F)F)cc3)cc(OCCCN3CCC(O)CC3)c2cc1OC | 11.5 µM | 25.7 µM
CC(=O)OC(C)C(=O)C1c2cccc(O)c2C(=O)c2c(O)cc(C)cc21 (stereo not drawn) |  | 2.88 µM
O=C1NNC(=O)c2ccccc2SSc2ccccc2C(=O)NNC(=O)c2ccccc2SSc2ccccc21 | 70.9 µM | 50 µM and > 100 µM
NC(CCc1nc(-c2ccc(Cl)cc2)cs1)C(=O)O (stereo not drawn) |  | > 100 µM
COc1cc(C(=O)/C=C/c2sc(Cl)nc2Cl)cc(OC)c1OC | 2.06 µM | 4.93 µM
COc1cc2nc(C)nc(N[C@H](C)c3cc(N)cc(C(F)(F)F)c3)c2cc1O[C@H]1CCOC1 | 2.9 µM | 20.6 µM
O=C1c2ccccc2C(=O)c2sc(Nc3cccc(Cl)c3)nc21 |  | 5.39 µM
CC1=C(C(=O)Nc2ccc(F)c(Cl)c2)C(c2ccc(Cl)cc2)NC(=O)N1 (stereo not drawn) | 7.4 µM | 25.4 µM
Fc1ccc(Nc2ncnc3ccc(-c4cnc5[nH]ccc5c4)cc23)cc1Cl | 0.292 µM | 13.8 µM
CN(C)CCCNC1=C(Cl)C(=O)c2ccccc2C1=O | 15.4 µM | 29 µM
O=C(Nc1ccc(F)cc1F)c1cc(I)ccc1O | 4.73 µM | 31.1 µM

test system: IGROV1 ovarian; assay: growth of human tumour cells (NCI), 48 h

SMILES | GI50 | TGI
C[C@@H](CS(C)(=O)=O)Nc1ncc2cc(Oc3ccc(F)cc3F)c(=O)n(C)c2n1 | > 25000 nM | > 25 µM
COc1cc2c(c(OC)c1O)C(=O)C(OC)C(c1ccc(O)c(O)c1)O2 (stereo not drawn) | 553 nM | > 100 µM
Cn1ccnc1C(=O)/C=C/c1ccc(CC(=O)Nc2ccc(Br)cc2)cc1 | 2970 nM | 10.6 µM
CCOC(=O)Nc1nc2ccc(OCC)cc2s1 | 31700 nM | > 100 µM
NS(=O)(=O)c1ccccc1C(=O)N/N=C(\c1nc2ccc([N+](=O)[O-])cc2[nH]c1=O)C(O)c1ccc([N+](=O)[O-])cc1 (stereo not drawn) |  | > 100 µM
N#CC(C#N)=c1ccc(=C2NCC3CCCN23)cc1 (stereo not drawn) |  | > 100 µM
CC(C)c1ccc(C(C)C(=O)N(CC2=C(C(C)c3ccccn3)c3ccccc3C2)C(C)C)cc1 (stereo not drawn) | 2770 nM | 31.3 µM
Cc1nc2c(nc1C)C(=O)c1ccccc1C2=O |  | 27.2 µM
O=[N+]([O-])c1cnc(Sc2ccncn2)s1 | 1710 nM | 3.35 µM
O=C(Nc1ccc(I)cc1)c1cc([N+](=O)[O-])ccc1O | 13800 nM | > 100 µM
Cc1cc(=O)n2[nH]c(-c3ccc(C(C)(C)C)cc3)cc2n1 | 7360 nM | > 100 µM
O=C(N/C(=C\c1cc(Cl)ccc1Cl)c1nc2[nH]c(=S)[nH]c(=O)c2[nH]1)c1ccccc1 |  | > 70.6 µM
O=C(CN1CCN(c2cc3c(cc2F)c(=O)c(C(=O)N/N=C/c2ccccc2O)cn3C2CC2)CC1)N/N=C\c1ccccc1O | 787 nM | > 100 µM
C=C(CNCCO)[C@@H]1CC[C@]2(CO)CC[C@]3(C)[C@H](CC[C@@H]4[C@@]5(C)CCC(N)C(C)(C)[C@@H]5CC[C@]43C)[C@@H]12 (stereo partly drawn) | 6050 nM | 20.8 µM
Nc1cc2nc3ccccc3sc-2cc1=O | 3020 nM | 13.1 µM
CN(CC(=O)O)S(=O)(=O)c1ccc2ccccc2c1 |  | > 100 µM
CC1=C(C(=O)Nc2ccccc2C)C(c2ccco2)C(C(=O)Nc2ccccc2C)=C(C)N1C |  | > 100 µM
COc1cc2nc(-c3ccc(C(F)(F)F)cc3)cc(OCCCN3CCC(O)CC3)c2cc1OC | 900 nM | 18.2 µM
CC(=O)OC(C)C(=O)C1c2cccc(O)c2C(=O)c2c(O)cc(C)cc21 (stereo not drawn) |  | 1.66 µM
O=C1NNC(=O)c2ccccc2SSc2ccccc2C(=O)NNC(=O)c2ccccc2SSc2ccccc21 | 6660 nM | 50 µM and > 100 µM
NC(CCc1nc(-c2ccc(Cl)cc2)cs1)C(=O)O (stereo not drawn) |  | > 100 µM
COc1cc(C(=O)/C=C/c2sc(Cl)nc2Cl)cc(OC)c1OC | 1680 nM | 3.22 µM
COc1cc2nc(C)nc(N[C@H](C)c3cc(N)cc(C(F)(F)F)c3)c2cc1O[C@H]1CCOC1 | 2250 nM | 20.3 µM
O=C1c2ccccc2C(=O)c2sc(Nc3cccc(Cl)c3)nc21 |  | 5.9 µM
CC1=C(C(=O)Nc2ccc(F)c(Cl)c2)C(c2ccc(Cl)cc2)NC(=O)N1 (stereo not drawn) | 12600 nM | 31.9 µM
Fc1ccc(Nc2ncnc3ccc(-c4cnc5[nH]ccc5c4)cc23)cc1Cl | 450 nM | 3.41 µM
CN(C)CCCNC1=C(Cl)C(=O)c2ccccc2C1=O | 2010 nM | 4.12 µM
O=C(Nc1ccc(F)cc1F)c1cc(I)ccc1O | 2400 nM | > 100 µM

test system: RXF 393 renal; assay: growth of human tumour cells (NCI), 48 h

SMILES | GI50 | TGI
C[C@@H](CS(C)(=O)=O)Nc1ncc2cc(Oc3ccc(F)cc3F)c(=O)n(C)c2n1 | > 25000 nM | > 25 µM
COc1cc2c(c(OC)c1O)C(=O)C(OC)C(c1ccc(O)c(O)c1)O2 (stereo not drawn) | 305 nM | > 100 µM
Cn1ccnc1C(=O)/C=C/c1ccc(CC(=O)Nc2ccc(Br)cc2)cc1 | 3120 nM | 6.03 µM
CCOC(=O)Nc1nc2ccc(OCC)cc2s1 | > 53400 nM | > 100 µM
NS(=O)(=O)c1ccccc1C(=O)N/N=C(\c1nc2ccc([N+](=O)[O-])cc2[nH]c1=O)C(O)c1ccc([N+](=O)[O-])cc1 (stereo not drawn) |  | > 100 µM
N#CC(C#N)=c1ccc(=C2NCC3CCCN23)cc1 (stereo not drawn) |  | > 100 µM
CC(C)c1ccc(C(C)C(=O)N(CC2=C(C(C)c3ccccn3)c3ccccc3C2)C(C)C)cc1 (stereo not drawn) | 2380 nM | 14.3 µM
Cc1nc2c(nc1C)C(=O)c1ccccc1C2=O |  | 53.9 µM
O=[N+]([O-])c1cnc(Sc2ccncn2)s1 | 312 nM | 1.68 µM
O=C(Nc1ccc(I)cc1)c1cc([N+](=O)[O-])ccc1O | 2860 nM | 23.7 µM
Cc1cc(=O)n2[nH]c(-c3ccc(C(C)(C)C)cc3)cc2n1 | 4590 nM | 28.2 µM
O=C(N/C(=C\c1cc(Cl)ccc1Cl)c1nc2[nH]c(=S)[nH]c(=O)c2[nH]1)c1ccccc1 |  | 41.5 µM
O=C(CN1CCN(c2cc3c(cc2F)c(=O)c(C(=O)N/N=C/c2ccccc2O)cn3C2CC2)CC1)N/N=C\c1ccccc1O | 1320 nM | > 100 µM
C=C(CNCCO)[C@@H]1CC[C@]2(CO)CC[C@]3(C)[C@H](CC[C@@H]4[C@@]5(C)CCC(N)C(C)(C)[C@@H]5CC[C@]43C)[C@@H]12 (stereo partly drawn) | 1530 nM | 3.08 µM
Nc1cc2nc3ccccc3sc-2cc1=O | 2130 nM | 6.14 µM
CN(CC(=O)O)S(=O)(=O)c1ccc2ccccc2c1 |  | > 100 µM
CC1=C(C(=O)Nc2ccccc2C)C(c2ccco2)C(C(=O)Nc2ccccc2C)=C(C)N1C |  | > 100 µM
COc1cc2nc(-c3ccc(C(F)(F)F)cc3)cc(OCCCN3CCC(O)CC3)c2cc1OC | 1340 nM | 7.53 µM
CC(=O)OC(C)C(=O)C1c2cccc(O)c2C(=O)c2c(O)cc(C)cc21 (stereo not drawn) |  | 0.813 µM
O=C1NNC(=O)c2ccccc2SSc2ccccc2C(=O)NNC(=O)c2ccccc2SSc2ccccc21 |  | > 50 µM
NC(CCc1nc(-c2ccc(Cl)cc2)cs1)C(=O)O (stereo not drawn) |  | > 100 µM
COc1cc(C(=O)/C=C/c2sc(Cl)nc2Cl)cc(OC)c1OC | 1700 nM | 3.12 µM
COc1cc2nc(C)nc(N[C@H](C)c3cc(N)cc(C(F)(F)F)c3)c2cc1O[C@H]1CCOC1 | 5880 nM | 22 µM
O=C1c2ccccc2C(=O)c2sc(Nc3cccc(Cl)c3)nc21 |  | 3.19 µM
CC1=C(C(=O)Nc2ccc(F)c(Cl)c2)C(c2ccc(Cl)cc2)NC(=O)N1 (stereo not drawn) | 17600 nM | 37.2 µM
Fc1ccc(Nc2ncnc3ccc(-c4cnc5[nH]ccc5c4)cc23)cc1Cl | 1530 nM | 6.27 µM
CN(C)CCCNC1=C(Cl)C(=O)c2ccccc2C1=O | 1690 nM | 3.14 µM
O=C(Nc1ccc(F)cc1F)c1cc(I)ccc1O | 2500 nM | 7 µM
